Reference: US6770645B2, “Pharmaceutically active compounds” (Pfizer Inc., priority 2001, dated 2004)
Where a name gives a salt, the structure may show the parent alone. Read-outs that look alike come from different tables or passages of the source.

Assays:
[1] = target: T1, cGMP PDE5 (Homo sapiens, UniProt O76074); assay: In vitro cGMP PDE5 inhibitory activity (IC50); type: biochemical
T1 construct: The required PDE enzymes were isolated from a variety of sources, including human corpus cavernosum, human platelets; from tissue; host or cells: human corpus cavernosum tissue or human platelets
Method: The compounds of the present invention are potent and selective cGMP PDE5 inhibitors. In vitro PDE inhibitory activities against cyclic guanosine 3′,5′-monophosphate (cGMP) and cyclic adenosine 3′,5′-monophosphate (cAMP) phosphodiesterases were determined by measurement of their IC50 values (the concentration of compound required for 50% inhibition of enzyme activity).
The required PDE enzymes were isolated from a variety of sources, including human corpus cavernosum, human platelets, human cardiac ventricle, human skeletal muscle and human and canine retina, essentially by the method of W. J. Thompson and M. M. Appleman (Biochem., 1971, 10, 311). In particular, the cGMP-specific PDE (PDE5) and the cGMP-inhibited cAMP PDE (PDE3) were obtained from human corpus cavernosum tissue or human platelets; the cGMP-stimulated PDE (PDE2) was obtained from human corpus cavernosum or human platelets; the calcium/calmodulin (Ca/CAM)-dependent PDE (PDE1) from human cardiac ventricle; the cAMP-specific PDE (PDE4) from recombinant clone or human skeletal muscle; and the photoreceptor PDE (PDE6) from canine or human retina. Phosphodiesterases 7-11 were generated from full length human recombinant clones transfected into SF9 cells.
Assays were performed either using a modification of the “batch” method of W. J. Thompson et al. (Biochem., 1979, 18, 5228) or using a scintillation proximity assay for the direct detection of AMP/GMP using a modification of the protocol described by Amersham pic under product code TRKQ7090/7100. In summary, the effect of PDE inhibitors was investigated by assaying a fixed amount of enzyme in the presence of varying inhibitor concentrations and low substrate, (cGMP or cAMP in a 3:1 ratio unlabelled to [^3H]-labeled at a conc ˜½ Km) such that IC50 ≅Ki. The final assay volume was made up to 102 μl with assay buffer [20 mM Tris-HCl pH 7.4, 5 mM MgCl2, 1 mg/ml bovine serum albumin]. Reactions were initiated with enzyme, incubated for 30-60 min at 30° C. to give <30% substrate turnover and terminated with 50 μl yttrium silicate SPA beads (containing 3 mM of the respective unlabelled cyclic nucleotide for PDEs 3, 9 and 11). Plates were resealed and shaken for 20 min, after which the beads were allowed to settle for 30 min in the dark and then counted on a TopCount plate reader (Packard, Meriden, Conn.). Radioactivity units were converted to % activity of an uninhibited control (100%), plotted against inhibitor concentration and inhibitor IC50 values obtained using the ‘Fit Curve’ Microsoft Excel extension or inhouse equivalent.

[2] = bounds for groups of Examples, read-out: IC50 values for the PDE5 enzyme
[3] = in vitro cGMP PDE5 inhibitory activity, Table 1, read-out: IC50

## CCCCOc1ccc(S(C)(=O)=O)cc1-c1nc2c(CC)nn(Cc3ccccn3)c2c(=O)[nH]1 (as salt: potassium) [Example 5, 5-[2-Butoxy-5-(methylsulfonyl)phenyl]-3-ethyl-1-(2-pyridinylmethyl)-1,6-dihydro-7H-pyrazolo[4,3-d]pyrimidin-7-one]
other
  melting point: 189 to 191 °C

## CCCOc1ccc(S(C)(=O)=O)cc1-c1nc2c(CC)nn(Cc3ccccn3)c2c(=O)[nH]1 (as salt: potassium) [Example 11, 3-Ethyl-5-[5-(methylsulfonyl)-2-propoxyphenyl]-1-(2-pyridinylmethyl)-1,6-dihydro-7H-pyrazolo[4,3-d]pyrimidin-7-one]
other
  melting point: 209 to 211 °C

## CCc1nn(Cc2ccccn2)c2c(=O)[nH]c(-c3cc(S(C)(=O)=O)ccc3OCC(C)C)nc12 [Example 3, 3-Ethyl-5-[2-isobutoxy-5-(methylsulfonyl)phenyl]-1-(2-pyridinylmethyl)-1,6-dihydro-7H-pyrazolo[4,3-d]pyrimidin-7-one]
[1]; [2]
  IC50: < 10 nM
[1]; [3]
  IC50: 1.5 nM
other
  melting point: 223 to 225 °C

## CCc1nn(Cc2ccccn2)c2c(=O)[nH]c(-c3cc(S(C)(=O)=O)ccc3OCCOC)nc12 [Example 4, 3-Ethyl-5-[2-(2-methoxyethoxy)-5-(methylsulfonyl)phenyl]-1-(2-pyridinylmethyl)-1,6-dihydro-7H-pyrazolo[4,3-d]pyrimidin-7-one]
other
  melting point: 166 to 167 °C

## CCCCOc1ccc(S(C)(=O)=O)cc1-c1nc2c(CC)nn(Cc3ccccn3)c2c(=O)[nH]1 [Example 5, 5-[2-Butoxy-5-(methylsulfonyl)phenyl]-3-ethyl-1-(2-pyridinylmethyl)-1,6-dihydro-7H-pyrazolo[4,3-d]pyrimidin-7-one]
[1]; [2]
  IC50: < 10 nM
[1]; [3]
  IC50: 3.5 nM

## CCc1n[nH]c2c(=O)[nH]c(-c3cc(S(C)(=O)=O)ccc3OCc3ccccn3)nc12 [Example 6, 3-Ethyl-5-[5-(methylsulfonyl)-2-(2-pyridinylmethoxy)phenyl]-1,6-dihydro-7H-pyrazolo[4,3-d]pyrimidin-7-one]
other
  melting point: 283 to 286 °C

## CCCOc1ncc(S(C)(=O)=O)cc1-c1nc2c(CC)nn(C[C@@H]3CCCN3C)c2c(=O)[nH]1 [Example 23, 3-Ethyl-1-{[(2S)-1-methylpyrrolidinyl]methyl}-5-[5-(methylsulfonyl)-2-propoxy-3-pyridinyl]-1,6-dihydro-7H-pyrazolo[4,3-d]pyrimidin-7-one]
other
  melting point: 182 to 183 °C

## CCCOc1ccc(S(C)(=O)=O)cc1-c1nc2c(CC)nn(CCN(C(C)C)C(C)C)c2c(=O)[nH]1 [Example 24, 1-[2-(Diisopropylamino)ethyl]-3-ethyl-5-[5-(methylsulfonyl)-2-propoxyphenyl]-1,6-dihydro-7H-pyrazolo[4,3-d]pyrimidin-7-one]
[1]; [2]
  IC50: < 10 nM
[1]; [3]
  IC50: 6.7 nM

## CCCOc1ccc(S(C)(=O)=O)cc1-c1nc2c(CC)n(CCN(C(C)C)C(C)C)nc2c(=O)[nH]1 [Example 25, 2-[2-(diisopropylamino)ethyl]-3-ethyl-5-[5-(methylsulfonyl)-2-propoxyphenyl]-2,6-dihydro-7H-pyrazolo[4,3-d]pyrimidin-7-one]
[1]; [2]
  IC50: < 10 nM
[1]; [3]
  IC50: 5.4 nM

## CCCOc1ccc(S(=O)(=O)CC)cc1-c1nc2c(CC)nn(C[C@@H]3CCCN3C)c2c(=O)[nH]1 [Example 26, 3-Ethyl-5-[5-(ethylsulfonyl)-2-propoxyphenyl]-1-{[(2S)-1-methylpyrrolidinyl]methyl}-1,6-dihydro-7H-pyrazolo[4,3-d]pyrimidin-7-one]
[1]; [3]
  IC50: 18.3 nM

## CCCOc1ccc(S(C)(=O)=O)cc1-c1nc2c(CC)nn(C[C@@H]3CCCCN3C)c2c(=O)[nH]1 [Example 28, 3-Ethyl-1-{[(2S)-1-methylpiperidinyl]methyl}-5-[5-(methylsulfonyl)-2-propoxyphenyl]-1,6-dihydro-7H-pyrazolo[4,3-d]pyrimidin-7-one]
[1]; [2]
  IC50: < 10 nM
[1]; [3]
  IC50: 3.6 nM
